According to patent US10080757B2 (WISCONSIN ALUMNI RESEARCH FOUNDATION, priority 2016, dated 2018):

Biological target: T1, recombinant MtbUGM (Mycobacterium tuberculosis, UniProt P9WIQ1)
T1 construct: made in house
Experiment: biochemical
Conditions: carboxylic acid replacements (R3)

T1 sequence (P9WIQ1 whole entry): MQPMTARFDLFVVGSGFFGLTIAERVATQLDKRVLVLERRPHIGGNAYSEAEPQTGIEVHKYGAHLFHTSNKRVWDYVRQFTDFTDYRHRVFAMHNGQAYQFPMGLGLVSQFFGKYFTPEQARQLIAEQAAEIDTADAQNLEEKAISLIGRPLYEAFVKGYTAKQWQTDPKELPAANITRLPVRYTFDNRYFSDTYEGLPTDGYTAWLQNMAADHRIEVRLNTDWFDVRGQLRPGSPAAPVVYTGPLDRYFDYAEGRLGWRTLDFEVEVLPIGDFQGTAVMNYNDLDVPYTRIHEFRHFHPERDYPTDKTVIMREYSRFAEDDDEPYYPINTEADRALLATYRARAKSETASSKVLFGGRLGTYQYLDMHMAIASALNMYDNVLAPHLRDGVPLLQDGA

SMILES | MtbUGM inhibition (in words)
COC(=O)CC1Sc2nnc(Cc3ccc(Br)cc3)n2N=C1c1ccc(Cl)cc1 (stereo not shown) [Compound 14, Methyl-2-(3-(4-bromobenzyl)-6-(4-chlorophenyl)-7H-[1,2,4]triazolo[3,4-b][1,3,4]thiadiazin-7-yl)acetate] | neither the ester nor amide variants effectively inhibit MtbUGM
COC(=O)CC1Sc2nnc(-c3cccs3)n2N=C1c1ccc(Cl)cc1 (stereo not shown) [Compound 32, Methyl-2-(6-(4-chlorophenyl)-3-(thiophen-2-yl)-7H-[1,2,4]triazolo[3,4-b][1,3,4]thiadiazin-7-yl)acetate] | neither the ester nor amide variants effectively inhibit MtbUGM
C=CCNC(=O)CC1Sc2nnc(-c3cccs3)n2N=C1c1ccc(Cl)cc1 (stereo not shown) [Compound 34, N-allyl-2-(6-(4-chlorophenyl)-3-(thiophen-2-yl)-7H-[1,2,4]triazolo[3,4-b][1,3,4]thiadiazin-7-yl)acetamide] | neither the ester nor amide variants effectively inhibit MtbUGM
C=CCNC(=O)CC1Sc2nnc(Cc3ccc(Br)cc3)n2N=C1c1ccc(Cl)cc1 (stereo not shown) [Compound 35, N-allyl-2-(3-(4-bromobenzyl)-6-(4-chlorophenyl)-7H-[1,2,4]triazolo[3,4-b][1,3,4]thiadiazin-7-yl)acetamide] | neither the ester nor amide variants effectively inhibit MtbUGM
